The CheMixHub viscosity set

Assay: xn = mol fraction of the nth substance listed

CCOC(=O)C(C)O (stereo not drawn) + OCCCO
101 kPa
Details	viscosity [mPa·s]
298.15 K, x1 = 0.4996	9.585
303.15 K, x1 = 0.3	14.35
303.15 K, x1 = 0.8	3.405
313.15 K, x1 = 0.3998	7.365
318.15 K, x1 = 0.3	8.235
323.15 K, x1 = 0.5997	3.235

CCN(CC)S(C)(=O)=O + CC(C)O
303.15 K, 101.33 kPa
Details	viscosity [mPa·s]
x1 = 0.068	15930
x1 = 0.1441	15440
x1 = 0.2157	15650
x1 = 0.2582	15980
x1 = 0.3391	16860
x1 = 0.4088	17920
x1 = 0.4524	18630
x1 = 0.5136	19840
x1 = 0.5952	21830
x1 = 0.6857	24330
x1 = 0.7556	26840
x1 = 0.8417	30570
x1 = 0.9259	35180

C1CCCCCCC1 + C1CCCCC1
viscosity [mPa·s], 101 kPa
Details	303.15 K	308.15 K	313.15 K
x2 = 0.0546	–	1.706	1.541
x2 = 0.0923	1.877	–	–
x2 = 0.1695	–	1.514	1.381
x2 = 0.2019	1.715	–	–
x2 = 0.2513	–	1.41	1.277
x2 = 0.2992	1.585	–	–
x2 = 0.3712	–	1.274	1.165
x2 = 0.4839	–	1.158	1.054
x2 = 0.4989	1.344	–	–
x2 = 0.5516	–	1.097	1.004
x2 = 0.5811	1.254	–	–
x2 = 0.6466	1.183	–	–
x2 = 0.6567	–	1.006	0.9146
x2 = 0.7233	1.102	–	–
x2 = 0.7817	–	0.9053	0.8267
x2 = 0.8015	1.021	–	–
x2 = 0.8998	0.924	–	–
x2 = 0.9314	–	0.8049	0.7359

CC1(C)OCC(CO)O1 (stereo not drawn) + OCCO
viscosity [mPa·s], 101 kPa
Details	x1 = 0.0997	x1 = 0.2	x1 = 0.3008	x1 = 0.3988	x1 = 0.5014	x1 = 0.6	x1 = 0.7003	x1 = 0.8	x1 = 0.8997
298.15 K	15.54	14.27	12.57	11.4	10.31	9.722	9.762	9.801	9.695
308.15 K	10.5	9.645	8.569	7.712	6.932	6.525	6.516	6.912	6.889
318.15 K	7.537	6.894	6.139	5.409	4.898	4.639	4.882	5.057	5.085
